This is an account of results in US9573967B2, “N-heterocyclic carbene gold complexes with anticancer properties and methods of use thereof” (KING FAHD UNIVERSITY OF PETROLEUM AND MINERALS, priority 2015, dated 2017).

Type in all cases: cell-based
Experiment [1] relates to A549 (human lung carcinoma) cell line. Put plainly: In vitro cytotoxicity, MTT assay, A549. The settings on record: 24 h incubation with complex, read-out: IC50 values against A549 cancer cell line. The method, then: (§1) The in vitro cytotoxicity tests were carried out for the gold(I) precursor, labeled as complex 0 and the three synthesized complexes labeled as complex 1, 2 and 3 and compared with cisplatin (standard classical anticancer drug) against three human cancer cell lines, HCT15, HeLa and A549 using MTT assay. The dose dependent cytotoxic effect was obtained by the stipulated increase in concentrations of cisplatin and gold complexes 0-3 against the fixed number of human cancer cells. The IC50 concentration of cisplatin and complexes 0-3 for different human cancer cell lines was obtained from a curve between compound concentration and percentage viability of cells (FIGS. 5-10, Table 6).
(§2) In phase contrast micrographs, a decreasing cell density and deformed cellular morphology could be observed with increasing concentration of complexes 0-3 (FIGS. 11-13). […] The IC50 concentrations of gold complexes were calculated from a separate curve between complex concentration and % viability of cells plotted in Microsoft Excel 2007 (graphs not shown) using MTT assay data and explained by logarithmic regression equations (equations not shown).
(§3) The metal precursor (complex 0) and the three synthesized compounds 1-3 were evaluated for their in vitro cytotoxic activity against HCT15 (human cancer), HeLa (human cervical cancer) and A549 (human lung carcinoma) cell lines. […]
For orientation: Tetrazolium assays rely on reduction of a dye to a coloured formazan, in cell work by metabolically active cells.

In experiment [2] the test system is HeLa (human cervical cancer) cell line. Put plainly: In vitro cytotoxicity, MTT assay, HeLa. Conditions: 24 h incubation with complex, read-out: IC50 values against HeLa cancer cell line. The protocol: as §1, §2, §3
For experiment [3], the system named is HCT15 (human cancer) cell line. Put plainly: In vitro cytotoxicity, MTT assay, HCT15. The settings on record: for IC50: MTT assay, 24 h incubation with complex, read-out: IC50 values against HCT15 cancer cell line; for IC50 against HCT15 compared with cisplatin: in words. The protocol:
as §1
In phase contrast micrographs, a decreasing cell density and deformed cellular morphology could be observed with increasing concentration of complexes 0-3 (FIGS. 11-13). The dose dependent decrease in cell density was further supported by assessment of decreasing percent cell viability in MTT assay (FIGS. 5-10). The IC50 concentrations of gold complexes were calculated from a separate curve between complex concentration and % viability of cells plotted in Microsoft Excel 2007 (graphs not shown) using MTT assay data and explained by logarithmic regression equations (equations not shown).
The metal precursor (complex 0) and the three synthesized compounds 1-3 were evaluated for their in vitro cytotoxic activity against HCT15 (human cancer), HeLa (human cervical cancer) and A549 (human lung carcinoma) cell lines. The cells were seeded at 4×10^3 cells/well in 100 μL DMEM (Dulbecco's Modified Eagle's Medium) containing 10%. FBS (Fetal Bovine Serum) in 96-wells tissue culture plate and incubated for 72 h at 37° C., 5% CO2 in air and 90% relative humidity in CO2 incubator. After incubation, 100 μL of 50, 25, 12.5 and 6.25 μg/mL solutions of complexes (0-3), prepared in DMEM, were added to cells and the cultures were incubated for 24 h. The medium of wells was discarded and 100 μL DMEM containing MTT (3-(4,5-dimethylthiazol-2-yl)-2,5-diphenyltetrazolium bromide) (5 mg/mL) was added to the wells and incubated in CO2 incubator at 37° C. in dark for 4 h. After incubation, a purple colored formazan (artificial chromogenic dye, product of the reduction of water insoluble tetrazolium salts e.g., MMT by dehydrogenases and reductases) in the cells is produced and appeared as dark crystals in the bottom of the wells. The medium of culture was discarded from each well carefully to avoid disruption of monolayer and 100 μl of dimethyl sulfoxide (DMSO) was added in each well. […] The absorbance of the 96-wells plate was taken at 570 nm with Labsystems Multiskan EX-Enzyme-linked immunosorbent assay (EX-ELISA) reader against a reagent blank.

Consider “1,3-Bis(2,6-di-isopropylphenyl)imidazol-2-ylidenegold(I)chloride [Complex 0]”, for which the IC50 in experiment [1] is 180 µM; in experiment [2] it was 172 µM; in experiment [3], 122 µM.
On to `N.N.[Cl][Pt][Cl]` [Cisplatin, cisplatin], for which the IC50 in experiment [3] was determined as 29.5 µM.
Turning to `CCN(CC)C(=S)[S][Au][CH]1N(c2c(C(C)C)cccc2C(C)C)C=CN1c1c(C(C)C)cccc1C(C)C` [Complex 2, [Au(Ipr)(S2CN(C2H5)2)]], in experiment [3], the “IC50 against HCT15 compared with cisplatin” value is recorded as “moderate potency but better than cisplatin”.
Still for that read-out and setting: with `CC(C)c1cccc(C(C)C)c1N1C=CN(c2c(C(C)C)cccc2C(C)C)[CH]1[Au][S]C(=S)N(Cc1ccccc1)Cc1ccccc1` [Complex 3, [Au(Ipr)(S2CN(C7H7)2)]] the entry was “moderate potency but better than cisplatin”.

The term IC50 denotes the concentration needed to halve the response being measured.
